{
  "source": "patent US20250236616A1",
  "about": "“IMMUNOMODULATING AZALIDES” (Zoetis Services LLC, priority 2021, published 2025)",
  "key": {"CD163": {"test_system": "CD163", "test": "CD163 expression by flow cytometry, cattle", "type": "in vivo, bovine", "conditions": "monocytes/macrophages of whole blood", "protocol": "CD163 Expression by Flow Cytometry-Fresh whole bovine blood samples were collected into EDTA vacutainer tubes, placed on ice and processed within two hours of collection. Blood was placed in 96 well round bottom plates at 30 μL per well, 5 μL of goat serum was added as a blocking reagent and the plate was rocked at 4° C. for approximately 15 minutes. To label cells, 10 μL of a master mix panel of antibodies including anti-CD14 (BioLegend #301854), anti-CD172a (BioRad #MCA2041C), anti-CD163 (Kingfisher #WSC0832B-100) and anti-CD16 (BioRad #MCA5665F), was added to the samples and returned to 4° C. (protected from light) for 30 minutes. Single stain controls were included for use in fluorescence compensation matrices. Red blood cells were removed by adding 200 μL of lysis buffer and incubating for 10 minutes at room temperature while rocking. The plate was then centrifuged at 270×g for three minutes and supernatant removed. This step was repeated until supernatant was clear. 200 μL of FACS buffer was added to each well to wash cells, centrifuged as above, resuspended in 80 μL of FACS buffer and read immediately on a digital FACS Canto II HTS (BD Bioscience) flow cytometer. Data was analyzed using FlowJo software (BD Bioscience). Macrophage subpopulations were determined using CD172, CD14, CD16 markers and assessed for expression of CD163. […]"}, "P. multocida": {"test_system": "P. multocida", "test": "Murine P. multocida intranasal challenge study, treatment 18 hours after challenge, survival", "type": "in vivo, mice", "conditions": "subcutaneous 18 hours after challenge (5×10^3 CFU/mouse); tulathromycin 16 mg/kg, M9 32 mg/kg, ceftiofur 9 mg/kg", "protocol": "(§1) In one murine P. multocida intranasal challenge study, mice were administered tulathromycin (16 mg/kg; T02), M9 (32 mg/kg; T03), or ceftiofur (9 mg/kg; T04) by subcutaneous injection 18 hours after bacterial challenge (5×10^3 CFU/mouse) for lung tissue RNA sequence analysis. Survival at Day 7 was about 80%, 50%, and 90% for T02, T03, and T04, respectively, compared to placebo at 0%. Differential gene expression from total lung tissue RNA sequence analysis indicated at least 226 unique genes were up or down regulated (with significance) for T03. Output from ingenuity pathway analysis of these unique genes predicted major upstream regulators of the involved pathways. Data was analyzed based on the number of genes being modulated in the same direction that were associated with a given upstream regulator. An activation z-score of 2 or greater is considered significant and the direction change is indicated by + (activated) or -(inhibited). The top 5 pathways included: IL-9 signaling, glucocorticoid receptor signaling, prolactin signaling, JAK STAT signaling, and IL-17 signaling. The top 6 upstream regulators (activation z-score) included: lipopolysaccharide (−6.725), TNF (−4.669), IFNγ (−5.759), IL-1β (−5.947), STAT1 (−2.787), and poly rl: rC-RNA (−5.289). Even though this study was run in the murine model, the top upstream regulators identified as being modulated by M9 include an almost ubiquitous overlap with the pathways identified in the natural disease study as being key mediators in BRD, and therefore is modulating highly relevant pathways in BRD pathobiology."}, "[1]": {"test_system": "lung tissue gene expression, upstream regulators", "test": "Lung tissue RNA sequence analysis with ingenuity pathway analysis, murine P. multocida challenge", "type": "in vivo, mice", "conditions": "M9 32 mg/kg", "protocol": "as §1"}, "[2]": {"test_system": "natural bovine respiratory disease (BRD)", "test": "Natural bovine respiratory disease study, treatment failure", "type": "in vivo, beef calves", "conditions": "dosed on arrival to the feedlot, 14-day observation", "experimental": "The primary clinical endpoint for efficacy was treatment failure/success over a 14-day observation period. Clinically normal beef calves (150-200 kg) at moderate risk for BRD were dosed on arrival to the feedlot. Animals (N=114/group) received saline (T01), 5 mg/kg M9 (T02) or 10 mg/kg M9 (T03); or Zactran (T04)."}},
  "note": "“Also recorded” adds a separate entry of the source.",
  "data": [
    {"smiles": "CCCNC[C@]1(O)[C@H](C)O[C@@H](O[C@H]2[C@H](C)[C@@H](O[C@@H]3O[C@H](C)C[C@H](NC)[C@H]3O)[C@](C)(O)C[C@@H](C)CN[C@H](C)[C@@H](O)[C@](C)(O)[C@@H](CC)OC(=O)[C@@H]2C)C[C@@]1(C)OC", "note": "[Example M9, (2R,3S,4R,5R,8R,10R,11R,12S,13S,14R)-2-ethyl-3,4, 10-trihydroxy-13-(((2R,4R,5S,6S)-5-hydroxy-4-methoxy-4,6-dimethyl-5-((propylamino)methyl)-tetrahydro-2H-pyran-2-yl)oxy)-11-(((2S,3R,4S,6R)-3-hydroxy-6-methyl-4-(methylamino)tetrahydro-2H-pyran-2-yl)oxy)-3,5,8,10,12,14-hexamethyl-1-oxa-6-azacyclopentadecan-15-one]", "values": [
      {"measurement": "CD163 expression", "setting": "CD163", "value": "suppressed; also recorded: mitigates the pathologic increase in CD163 expression"},
      {"measurement": "Survival at Day 7", "setting": "P. multocida", "value": "~50", "unit": "%"},
      {"measurement": "unique genes up or down regulated (with significance)", "setting": "[1]; total lung tissue RNA sequence analysis", "value": "at least 226"},
      {"measurement": "activation z-score, upstream regulator IFNγ", "setting": "[1]; − = inhibited", "value": "−5.759"},
      {"measurement": "activation z-score, upstream regulator IL-1β", "setting": "[1]; − = inhibited", "value": "−5.947"},
      {"measurement": "activation z-score, upstream regulator STAT1", "setting": "[1]; − = inhibited", "value": "−2.787"},
      {"measurement": "activation z-score, upstream regulator TNF", "setting": "[1]; − = inhibited", "value": "−4.669"},
      {"measurement": "activation z-score, upstream regulator lipopolysaccharide", "setting": "[1]; − = inhibited", "value": "−6.725"},
      {"measurement": "activation z-score, upstream regulator poly rl: rC-RNA", "setting": "[1]; − = inhibited", "value": "−5.289"},
      {"measurement": "Percent failure", "setting": "[2]; 5 mg/kg", "value": 19.3, "unit": "%"},
      {"measurement": "Percent failure", "setting": "[2]; 10 mg/kg", "value": 8.8, "unit": "%"}
    ]}
  ]
}
